# Literature values in US10526334B2, “Methods for preparing bis-tetrahydroisoquinoline-containing compounds” (California Institute of Technology, priority 2017, dated 2020).
# Where two headings read alike, the source gives them in different places.
# How the values were obtained:
# [1] = not given; remark: listed apart in the source
# [2] = read-out: IC50 (A549 lung cancer)
t1/2 (human) (human),in vivo half-life (t1/2) (in humans),in vivo half-life (t1/2) ([1]; in rodents),t1/2 (rodent) ([1]; rodent),Structure (SMILES),IC50 (A549 lung cancer; read-out: IC50 vs. A549 lung cancer),IC50 (HCT116 colon cancer),IC50 (DU145 prostate cancer),IC50 (A549 lung cancer; [2]),IC50 (A375 melanoma),rodent in vivo half-life ([1]; rodent)
–,–,–,–,"COC1=C(C)C(=O)C2=C(C1=O)[C@@H]1[C@@H]3CC4=C(C(=O)C(OC)=C(C)C4=O)[C@H](COC(C)=O)N3[C@@H](O)[C@H](C2)N1C [Jorumycin, jorumycin]",240 pM,570 pM,490 pM,–,–,–
96 to 180 h,96 to 180 h,20 h,20 h,"COc1cc2c(cc1O)CCN[C@]21CS[C@@H]2c3c(OC(C)=O)c(C)c4c(c3[C@H](COC1=O)N1[C@@H]2[C@H]2c3c(cc(C)c(OC)c3O)C[C@@H]([C@@H]1O)N2C)OCO4 [Et 743, ecteinascidin 743]",–,–,–,1000 pM,150 pM,–
–,–,–,–,COc1c(C)c(OC)c2c(c1O)[C@@H]1[C@@H]3Cc4c(OC)c(C)c(OC)c(O)c4[C@H](CNC(=O)c4ccc5ccccc5n4)N3[C@@H](C#N)[C@H](C2)N1C [QAD],–,–,–,4400 pM,1300 pM,0.283 h
